Test results reported in ChEMBL document CHEMBL1201862, “PubChem BioAssay data set” (2004).
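Briefly, cells in 96-well plates were exposed to five compound concentrations for 48 h, and endpoints were estimated by linear interpolation. At the GI50, growth is halved.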 Activity calls are given as the source filed them. No stated cut-off is given here; in the data, active = GI50 up to about 1.1 µM and inactive = higher.

What was measured:
Test in all cases: NCI-60 cell line screen, 48 h
786-0 = test system: 786-0
A498 = test system: A498
A549 = test system: A549
ACHN = test system: ACHN
BT-549 = test system: BT-549
CAKI-1 = test system: CAKI-1
CCRF-CEM = test system: CCRF-CEM
COLO 205 = test system: COLO 205
DU-145 = test system: DU-145
EKVX = test system: EKVX
HCT-116 = test system: HCT-116
HCT-15 = test system: HCT-15
HOP-62 = test system: HOP-62
HOP-92 = test system: HOP-92
HT-29 = test system: HT-29
Hs-578T = test system: Hs-578T
IGROV-1 = test system: IGROV-1
K562 = test system: K562
KM12 = test system: KM12
LOX IMVI = test system: LOX IMVI
M14 = test system: M14
MCF7 = test system: MCF7
MDA-MB-231 = test system: MDA-MB-231
MDA-MB-435 = test system: MDA-MB-435
MDA-N = test system: MDA-N
MOLT-4 = test system: MOLT-4
Malme-3M = test system: Malme-3M
NCI-H226 = test system: NCI-H226
NCI-H23 = test system: NCI-H23
NCI-H460 = test system: NCI-H460
NCI-H522 = test system: NCI-H522
NCI/ADR-RES = test system: NCI/ADR-RES
OVCAR-3 = test system: OVCAR-3
OVCAR-4 = test system: OVCAR-4
OVCAR-5 = test system: OVCAR-5
OVCAR-8 = test system: OVCAR-8
PC-3 = test system: PC-3
RPMI-8226 = test system: RPMI-8226
RXF 393 = test system: RXF 393
SF-268 = test system: SF-268
SF-295 = test system: SF-295
SF-539 = test system: SF-539
SK-MEL-28 = test system: SK-MEL-28
SK-MEL-2 = test system: SK-MEL-2
SK-MEL-5 = test system: SK-MEL-5
SK-OV-3 = test system: SK-OV-3
SN12C = test system: SN12C
SNB-19 = test system: SNB-19
SNB-75 = test system: SNB-75
SR = test system: SR
SW-620 = test system: SW-620
T47D = test system: T47D
TK-10 = test system: TK-10
U-251 = test system: U-251
UACC-257 = test system: UACC-257
UACC-62 = test system: UACC-62
UO-31 = test system: UO-31
HL-60 = test system: HL-60

For CS(=O)(=O)N(CC(=O)O)Cc1ccccc1, the GI50 (786-0) was > 100 µM (inactive), the GI50 (A498) was > 100 µM (inactive) and the GI50 (A549) was > 100 µM (inactive). The GI50 (ACHN) was > 100 µM (inactive), the GI50 (BT-549) was > 100 µM (inactive) and the GI50 (CAKI-1) was > 100 µM (inactive). For the same compound, the GI50 (CCRF-CEM) was > 100 µM (inactive), the GI50 (COLO 205) was > 100 µM (inactive) and the GI50 (DU-145) was > 100 µM (inactive). For the same compound, the GI50 (EKVX) was > 100 µM (inactive), the GI50 (HCT-116) was > 100 µM (inactive) and the GI50 (HCT-15) was over 100 µM. The GI50 (HOP-62) was > 100 µM (inactive), the GI50 (HOP-92) was > 100 µM (inactive) and the GI50 (HT-29) was > 100 µM (inactive). For the same compound, the GI50 (Hs-578T) was > 100 µM (inactive), the GI50 (IGROV-1) was > 100 µM (inactive) and the GI50 (K562) was > 100 µM (inactive). For the same compound, the GI50 (KM12) was > 100 µM (inactive), the GI50 (LOX IMVI) was > 100 µM (inactive) and the GI50 (M14) was > 100 µM (inactive). For the same compound, the GI50 (MCF7) was > 100 µM (inactive), the GI50 (MDA-MB-231) was > 100 µM (inactive) and the GI50 (MDA-MB-435) was > 100 µM (inactive). The GI50 (MDA-N) was > 100 µM (inactive), the GI50 (MOLT-4) was > 100 µM (inactive) and the GI50 (Malme-3M) was > 100 µM (inactive). For the same compound, the GI50 (NCI-H226) was > 100 µM (inactive), the GI50 (NCI-H23) was > 100 µM (inactive) and the GI50 (NCI-H460) was > 100 µM (inactive). For the same compound, the GI50 (NCI-H522) was > 100 µM (inactive), the GI50 (NCI/ADR-RES) was > 100 µM (inactive) and the GI50 (OVCAR-3) was > 100 µM (inactive). The GI50 (OVCAR-4) was > 100 µM (inactive), the GI50 (OVCAR-5) was > 100 µM (inactive) and the GI50 (OVCAR-8) was > 100 µM (inactive). The GI50 (PC-3) was > 100 µM (inactive), the GI50 (RPMI-8226) was > 100 µM (inactive) and the GI50 (RXF 393) was > 100 µM (inactive). The GI50 (SF-268) was > 100 µM (inactive), the GI50 (SF-295) was > 100 µM (inactive) and the GI50 (SF-539) was > 100 µM (inactive). The GI50 (SK-MEL-28) was > 100 µM (inactive), the GI50 (SK-MEL-2) was > 100 µM (inactive) and the GI50 (SK-MEL-5) was > 100 µM (inactive). The GI50 (SK-OV-3) was > 100 µM (inactive), the GI50 (SN12C) was > 100 µM (inactive) and the GI50 (SNB-19) was > 100 µM (inactive). For the same compound, the GI50 (SNB-75) was > 100 µM (inactive), the GI50 (SR) was > 100 µM (inactive) and the GI50 (SW-620) was > 100 µM (inactive). For the same compound, the GI50 (T47D) was > 100 µM (inactive), the GI50 (TK-10) was > 100 µM (inactive) and the GI50 (U-251) was > 100 µM (inactive). The GI50 (UACC-257) was > 100 µM (inactive) and the GI50 (UACC-62) was > 100 µM (inactive).

O=C1/C(=C/c2cccnc2)SC(=S)N1Cc1ccco1 was tested, and the GI50 (786-0) was 3.29 µM (inactive), the GI50 (A498) was 24.7 µM (inactive) and the GI50 (A549) was 31 µM (inactive). For the same compound, the GI50 (ACHN) was 10.7 µM (inactive), the GI50 (BT-549) was 27.2 µM (inactive) and the GI50 (CAKI-1) was 9.59 µM (inactive). For the same compound, the GI50 (CCRF-CEM) was 3.21 µM (inactive), the GI50 (COLO 205) was 6.15 µM (inactive) and the GI50 (DU-145) was 2.19 µM (inactive). For the same compound, the GI50 (EKVX) was 49.5 µM (inactive), the GI50 (HCT-116) was 3.06 µM (inactive) and the GI50 (HCT-15) was 3.72 µM. For the same compound, the GI50 (HOP-62) was 5.77 µM (inactive), the GI50 (HOP-92) was 5.32 µM (inactive) and the GI50 (HT-29) was 4.01 µM (inactive). For the same compound, the GI50 (Hs-578T) was 8.39 µM (inactive), the GI50 (IGROV-1) was 6.68 µM (inactive) and the GI50 (K562) was 14.6 µM (inactive). For the same compound, the GI50 (KM12) was 3.13 µM (inactive), the GI50 (LOX IMVI) was 4.16 µM (inactive) and the GI50 (M14) was 5.6 µM (inactive). The GI50 (MCF7) was 3.28 µM (inactive), the GI50 (MDA-MB-231) was 7.08 µM (inactive) and the GI50 (MDA-MB-435) was 2.15 µM (inactive). For the same compound, the GI50 (MDA-N) was 2.33 µM (inactive), the GI50 (MOLT-4) was 3.08 µM (inactive) and the GI50 (Malme-3M) was 6.73 µM (inactive). The GI50 (NCI-H226) was 24.4 µM (inactive), the GI50 (NCI-H23) was 4.72 µM (inactive) and the GI50 (NCI-H460) was 6.37 µM (inactive). For the same compound, the GI50 (NCI-H522) was 1.43 µM (inactive), the GI50 (NCI/ADR-RES) was 20.1 µM (inactive) and the GI50 (OVCAR-3) was 3.31 µM (inactive). For the same compound, the GI50 (OVCAR-4) was 8.81 µM (inactive), the GI50 (OVCAR-5) was 36.1 µM (inactive) and the GI50 (OVCAR-8) was 4.7 µM (inactive). The GI50 (PC-3) was 3.87 µM (inactive), the GI50 (RPMI-8226) was 2.2 µM (inactive) and the GI50 (RXF 393) was 3.44 µM (inactive). For the same compound, the GI50 (SF-268) was 5.94 µM (inactive), the GI50 (SF-295) was 35.7 µM (inactive) and the GI50 (SF-539) was 2.33 µM (inactive). For the same compound, the GI50 (SK-MEL-28) was 31 µM (inactive), the GI50 (SK-MEL-2) was 8.87 µM (inactive) and the GI50 (SK-MEL-5) was 13.4 µM (inactive). The GI50 (SK-OV-3) was 19.1 µM (inactive), the GI50 (SN12C) was 4.47 µM (inactive) and the GI50 (SNB-19) was 32 µM (inactive). The GI50 (SR) was 1.44 µM (inactive), the GI50 (SW-620) was 3.84 µM (inactive) and the GI50 (T47D) was 11.7 µM (inactive). For the same compound, the GI50 (TK-10) was 2.34 µM (inactive), the GI50 (U-251) was 4.37 µM (inactive) and the GI50 (UACC-257) was 4.92 µM (inactive). For the same compound, the GI50 (UACC-62) was 8.97 µM (inactive) and the GI50 (UO-31) was 2.84 µM (inactive).

CC(=O)Nc1ccc(-c2cc(C(=O)O)c3cc4ccccc4cc3n2)cc1 was tested, and the GI50 (786-0) was > 100 µM (inactive), the GI50 (A498) was > 100 µM (inactive) and the GI50 (A549) was > 100 µM (inactive). For the same compound, the GI50 (ACHN) was > 100 µM (inactive), the GI50 (BT-549) was > 100 µM (inactive) and the GI50 (CAKI-1) was > 100 µM (inactive). The GI50 (COLO 205) was > 100 µM (inactive), the GI50 (DU-145) was > 100 µM (inactive) and the GI50 (EKVX) was > 100 µM (inactive). For the same compound, the GI50 (HCT-116) was > 100 µM (inactive), the GI50 (HCT-15) was over 100 µM and the GI50 (HL-60) was > 100 µM (inactive). The GI50 (HOP-62) was > 100 µM (inactive), the GI50 (HOP-92) was > 100 µM (inactive) and the GI50 (HT-29) was > 100 µM (inactive). The GI50 (Hs-578T) was > 100 µM (inactive), the GI50 (IGROV-1) was > 100 µM (inactive) and the GI50 (K562) was > 100 µM (inactive). For the same compound, the GI50 (KM12) was > 100 µM (inactive), the GI50 (LOX IMVI) was > 100 µM (inactive) and the GI50 (M14) was > 100 µM (inactive). The GI50 (MCF7) was > 100 µM (inactive), the GI50 (MDA-MB-231) was > 100 µM (inactive) and the GI50 (MDA-MB-435) was > 100 µM (inactive). For the same compound, the GI50 (MDA-N) was > 100 µM (inactive), the GI50 (MOLT-4) was > 100 µM (inactive) and the GI50 (Malme-3M) was > 100 µM (inactive). The GI50 (NCI-H226) was > 100 µM (inactive), the GI50 (NCI-H23) was > 100 µM (inactive) and the GI50 (NCI-H460) was > 100 µM (inactive). The GI50 (NCI-H522) was > 100 µM (inactive), the GI50 (NCI/ADR-RES) was > 100 µM (inactive) and the GI50 (OVCAR-3) was > 100 µM (inactive). For the same compound, the GI50 (OVCAR-4) was > 100 µM (inactive), the GI50 (OVCAR-5) was > 100 µM (inactive) and the GI50 (OVCAR-8) was > 100 µM (inactive). For the same compound, the GI50 (PC-3) was > 100 µM (inactive), the GI50 (RPMI-8226) was > 100 µM (inactive) and the GI50 (RXF 393) was > 100 µM (inactive). For the same compound, the GI50 (SF-268) was > 100 µM (inactive), the GI50 (SF-295) was > 100 µM (inactive) and the GI50 (SF-539) was > 100 µM (inactive). The GI50 (SK-MEL-28) was > 100 µM (inactive), the GI50 (SK-MEL-2) was > 100 µM (inactive) and the GI50 (SK-MEL-5) was > 100 µM (inactive). The GI50 (SK-OV-3) was > 100 µM (inactive), the GI50 (SN12C) was > 100 µM (inactive) and the GI50 (SNB-19) was > 100 µM (inactive). For the same compound, the GI50 (SNB-75) was > 100 µM (inactive), the GI50 (SR) was > 100 µM (inactive) and the GI50 (SW-620) was > 100 µM (inactive). The GI50 (T47D) was > 100 µM (inactive), the GI50 (TK-10) was > 100 µM (inactive) and the GI50 (U-251) was > 100 µM (inactive). For the same compound, the GI50 (UACC-257) was > 100 µM (inactive) and the GI50 (UACC-62) was > 100 µM (inactive).
